In patent US7527792B1, “Pharmaceutical composition comprising an anti-cancer and at least a peptide” (Synt : EM, priority 1998, dated 2009):
Where “and” joins values, the source holds several entries; their conditions need not be identical. Equal entries are not always repeated. Where two headings read alike, the source gives them in different places. Numbered stars: 1 amine (or outer) side, 2 acyl side, 3 side chain; on linkers, the order of the positions; unused ones are H or OH. Peptide text beside a SMILES is read from it. * marks the point of attachment. X1 = COc1cccc2c1C(=O)c1c(O)c3c(c(O)c1C2=O)C[C@@](O)(C(=O)CO)C[C@@H]3O[C@H]1C[C@H](NC(=O)CCN2C(=O)CC(*)C2=O)[C@H](O)[C@H](C)O1; Doxorubicin(3'-N) = COc1cccc2c1C(=O)c1c(O)c3c(c(O)c1C2=O)C[C@@](O)(C(=O)CO)C[C@@H]3O[C@H]1C[C@H](N*)[C@H](O)[C@H](C)O1; Suc = O=C(CCC(=O)[*:2])[*:1]

Experiments:
Assay type in all cases: cell-based, human
resistant K562/ADR cells [1] = assay: Internalisation by flow cytometry; conditions: 3 μM, 30 min incubation at 37° C.
Procedure: (§1) The susceptible K562 chronic myeloid leukaemia cells, resistant K562/ADR cells and HL60/R10 promyeloid leukaemia cells are of human origin and were obtained commercially from the ATCC. The cells are inoculated at a rate of approximately 10^4 cells per well, 24 hours before adding the products. The cells are kept in culture at 37° C. in an atmosphere at 95% humidity and 5% CO2 in an OptiMem medium.
The susceptible K562 cells and resistant K562/ADR cells are incubated either with free doxorubicin or with doxorubicin in a vector at a concentration of 3 μM. After 30 minutes of incubation at 37° C., the cells are washed three times with PBS. The internalisation of the products is then analysed by flow cytometry. The samples are analysed with a flow cytometer equipped with a 15 mA argon laser. The fluorescence emitted is recorded on a logarithmic scale at (575 NM) nm after an excitation at (488) nm. The fluorescence is measured on 10,000 cells selected according to the […] parameters. The results are expressed as a percentage of positive cells of the fluorescence intensity logarithm. The results are analysed using the software program Cell Quest.
The susceptible K562 cells and resistant K562/ADR cells are incubated either with free doxorubicin or with doxorubicin in the vector. After 30 min of incubation, the internalisation of the products is measured by flow cytometry.

[2] = test system: susceptible K562 chronic myeloid leukaemia cells; assay: Cytotoxicity, MTT test, susceptible line; conditions: 8 μM, 24 hours incubation
resistant K562/ADR cells [3] = assay: Cytotoxicity, MTT test, resistant line; conditions: for F. Rev (reversion factor): K562/ADR, effect of the vector on susceptibility, free doxo versus compound; for F. Res (resistance factor): ratio of IC50 values, resistant line K562/ADR versus susceptible K562
Procedure: as §1
[…] At the end of the culture period, MTT (3-(4,5-dimethylthiazole-2-yl)-2,5-diphenyltetrazolium bromide) is added into the wells and the culture plates are then incubated for 4 hours in the incubator. The resulting crystalline formazan deposit is then dissolved by adding 200 μl of DMF/SDS. The optical density (OD) is measured at 550 nm (reference 630 nm) using a microplate reader.
(§2) The graphic representation of the OD percentages of the wells treated as a function of the concentration of products is used to determine the IC50 which corresponds to the concentration of product that inhibits 50% of growth.
The IC50 values are used to quantify the resistance factor (F. Res) of the resistant lines using the following ratio:
The reversion factor (F. Rev) corresponds to the effect of a modulator (the vector) on the susceptibility of the cells to the anti-tumour agents according to the following ratio:
The susceptibility of the cells to anti-tumour agents was measured using the MTT test under the experimental conditions defined above wherein the relationship between the optical density and the number of viable cells is linear.

[4] = test system: HL60/R10 promyeloid leukaemia cells; assay: Cytotoxicity, MTT test, HL60/R10
Procedure: as §1
The susceptible K562 cells and resistant K562/ADR cells are incubated either with free doxorubicin or with doxorubicin in a vector at increasing concentrations after 48 hours in culture in the presence of the products. At the end of the culture period, MTT (3-(4,5-dimethylthiazole-2-yl)-2,5-diphenyltetrazolium bromide) is added into the wells and the culture plates are then incubated for 4 hours in the incubator. The resulting crystalline formazan deposit is then dissolved by adding 200 μl of DMF/SDS. The optical density (OD) is measured at 550 nm (reference 630 nm) using a microplate reader.
as §2
The reversion factor (F. Rev) corresponds to the effect of a modulator (the vector) on the susceptibility of the cells to the anti-tumour agents according to the following ratio: […]

| SMILES | F. Rev (reversion factor) (resistant K562/ADR cells [3]) | F. Res (resistance factor) (resistant K562/ADR cells [3]) | further results |
| --- | --- | --- | --- |
| COc1cccc2c1C(=O)c1c(O)c3c(c(O)c1C2=O)C[C@@](O)(C(=O)CO)C[C@@H]3O[C@H]1C[C@H](N)[C@H](O)[C@H](C)O1 [Free Doxo, doxorubicin, reference compound] | – | – | percentage of positive cells (internalisation) (resistant K562/ADR cells [1]; listed as free doxorubicin): 5.86% and 5.68%; survival of the cells [2]: 15%; survival of the cells (resistant K562/ADR cells [3]; K562/ADR resistant cells, 8 μM, 24 hours incubation, MTT): 100%; IC50 (resistant K562/ADR cells [3]; resistant line K562/ADR, MTT, 50% growth inhibition, listed as free doxorubicin, read-out: IC50 K562/ADR): 70 µM; IC50 ([4]; Homo sapiens, HL-60, HL60/R10 doxorubicin-resistant cells, MTT): 40 µM |
| COc1cccc2c1C(=O)c1c(O)c3c(c(O)c1C2=O)C[C@@](O)(C(=O)CO)C[C@@H]3O[C@H]1C[C@H](NC(=O)CCC(=O)N[C@@H](CCCNC(=N)N)C(=O)NCC(=O)NCC(=O)N[C@@H](CCCNC(=N)N)C(=O)N[C@@H](CC(C)C)C(=O)N[C@@H](CO)C(=O)N[C@@H](Cc2ccc(O)cc2)C(=O)N[C@@H](CO)C(=O)N[C@@H](CCCNC(=N)N)C(=O)N[C@@H](CCCNC(=N)N)C(=O)N[C@@H](CCCNC(=N)N)C(=O)N[C@@H](Cc2ccccc2)C(=O)N[C@@H](CO)C(=O)N[C@H](C(=O)N[C@@H](CO)C(=O)N[C@H](C(=O)NCC(=O)N[C@@H](CCCNC(=N)N)C(=O)O)[C@@H](C)O)[C@@H](C)O)[C@H](O)[C@H](C)O1 [Compound 1, doxo-CO-(CH2)2-CO-RGGRLSYSRRRFSTSTGR] ({Doxorubicin(3'-N)-Suc}-RGGRLSYSRRRFSTSTGR-OH; N-terminus and C-terminus assumed) | 2.5 | 0.7 | – |
| CC[C@H](C)[C@H](NC(=O)CNC(=O)[C@H](CCCNC(=N)N)NC(=O)[C@H](Cc1ccc(O)cc1)NC(=O)[C@H](CO)NC(=O)[C@@H](NC(=O)[C@H](CCCNC(=N)N)NC(=O)[C@H](Cc1ccccc1)NC(=O)[C@H](CO)NC(=O)[C@H](Cc1c[nH]c2ccccc12)NC(=O)[C@H](CCCCN)NC(=O)CCC(=O)N[C@H]1C[C@H](O[C@H]2C[C@](O)(C(=O)CO)Cc3c(O)c4c(c(O)c32)C(=O)c2c(OC)cccc2C4=O)O[C@@H](C)[C@H]1O)C(C)C)C(=O)N[C@@H](CO)C(=O)N[C@@H](Cc1ccc(O)cc1)C(=O)N[C@@H](CCCNC(=N)N)C(=O)N[C@@H](CCCNC(=N)N)C(=O)N[C@@H](CO)C(=O)N[C@@H](CCCNC(=N)N)C(=O)O [Compound 3, doxo-CO-(CH2)2-CO-KWSFRVSYRGISYRRSR] ({Doxorubicin(3'-N)-Suc}-KWSFRVSYRGISYRRSR-OH; N-terminus and C-terminus assumed) | 43 | 0.8 | – |
| COc1cccc2c1C(=O)c1c(O)c3c(c(O)c1C2=O)C[C@@](O)(C(=O)CO)C[C@@H]3O[C@H]1C[C@H](NC(=O)CCC(=O)N[C@@H](CCCNC(=N)N)C(=O)N[C@@H](CCCNC(=N)N)C(=O)N[C@@H](CC(C)C)C(=O)N[C@@H](CO)C(=O)N[C@@H](Cc2ccc(O)cc2)C(=O)N[C@@H](CO)C(=O)N[C@@H](CCCNC(=N)N)C(=O)N[C@@H](CCCNC(=N)N)C(=O)N[C@@H](CCCNC(=N)N)C(=O)N[C@@H](Cc2ccccc2)C(=O)O)[C@H](O)[C@H](C)O1 [Compound 4, doxo-CO-(CH2)2-CO-RRLSYSRRRF] ({Doxorubicin(3'-N)-Suc}-RRLSYSRRRF-OH; N-terminus and C-terminus assumed) | 2.8 | 1 | – |
| CC[C@H](C)[C@H](NC(=O)[C@H](CCCCN)NC(=O)[C@@H](NC(=O)[C@H](CC(N)=O)NC(=O)[C@H](CCC(=O)O)NC(=O)[C@@H](N)CSC1CC(=O)N(CCC(=O)N[C@H]2C[C@H](O[C@H]3C[C@](O)(C(=O)CO)Cc4c(O)c5c(c(O)c43)C(=O)c3c(OC)cccc3C5=O)O[C@@H](C)[C@H]2O)C1=O)[C@@H](C)CC)C(=O)N[C@@H](Cc1c[nH]c2ccccc12)C(=O)N[C@@H](CC(C)C)C(=O)N[C@@H](CO)C(=O)N[C@@H](CC(C)C)C(=O)N[C@@H](CCCNC(=N)N)C(=O)N[C@@H](CO)C(=O)N[C@@H](Cc1ccc(O)cc1)C(=O)N[C@@H](CC(C)C)C(=O)N[C@@H](CCCCN)C(=O)N[C@@H](CCCNC(=N)N)C(=O)N[C@@H](CCCNC(=N)N)C(=O)O (some centres unmarked) [Compound 6, doxo-SMP-CENIKIWLSLRSYLKRR] (H-C(X1)ENIKIWLSLRSYLKRR-OH; N-terminus and C-terminus assumed) | 12.8 | 1.1 | – |
| CC[C@@H](C)[C@@H](NC(=O)[C@@H](CCCCN)NC(=O)[C@H](NC(=O)[C@@H](CCC(N)=O)NC(=O)[C@@H](CCCNC(=N)N)NC(=O)CCSC1CC(=O)N(CCC(=O)N[C@H]2C[C@H](O[C@H]3C[C@](O)(C(=O)CO)Cc4c(O)c5c(c(O)c43)C(=O)c3c(OC)cccc3C5=O)O[C@@H](C)[C@H]2O)C1=O)[C@H](C)CC)C(=O)N[C@H](Cc1c[nH]c2ccccc12)C(=O)N[C@H](Cc1ccccc1)C(=O)N[C@H](CCC(N)=O)C(=O)N[C@H](CC(N)=O)C(=O)N[C@H](CCCNC(=N)N)C(=O)N[C@H](CCCNC(=N)N)C(=O)N[C@H](CCSC)C(=O)N[C@H](CCCCN)C(=O)N[C@H](Cc1c[nH]c2ccccc12)C(=O)N[C@H](CCCCN)C(=O)N[C@H](CCCCN)C(=O)O (some centres unmarked) [Compound 5, doxo-SMP-3MP-rqikiwfgnrrmkwkk] | 35 | 1.3 | percentage of positive cells (internalisation) (resistant K562/ADR cells [1]): 98%; IC50 (resistant K562/ADR cells [3]; resistant line K562/ADR, MTT, 50% growth inhibition, read-out: IC50 K562/ADR): 2 µM |
| COc1cccc2c1C(=O)c1c(O)c3c(c(O)c1C2=O)C[C@@](O)(C(=O)CO)C[C@@H]3O[C@H]1C[C@H](NC(=O)CCC(=O)N[C@@H](CCCNC(=N)N)C(=O)NCC(=O)NCC(=O)N[C@@H](CCCNC(=N)N)C(=O)N[C@@H](CC(C)C)C(=O)N[C@@H](CO)C(=O)N[C@@H](Cc2ccc(O)cc2)C(=O)N[C@@H](CO)C(=O)N[C@@H](CCCNC(=N)N)C(=O)N[C@@H](CCCNC(=N)N)C(=O)N[C@@H](CCCNC(=N)N)C(=O)N[C@@H](Cc2ccccc2)C(=O)N[C@@H](CO)C(=O)N[C@H](C(=O)N[C@@H](CO)C(=O)N[C@H](C(=O)NCC(=O)N[C@@H](CCCNC(=N)N)C(=O)O)C(C)C)C(C)C)[C@H](O)[C@H](C)O1 [Compound 2, doxo-CO-(CH2)2-CO-RGGRLSYSRRRFSVSVGR] ({Doxorubicin(3'-N)-Suc}-RGGRLSYSRRRFSVSVGR-OH; N-terminus and C-terminus assumed) | 5 | 0.9 | IC50 (resistant K562/ADR cells [3]; FIG. 5 experiment, linked versus not linked with peptide, cell line not given, resistant cells implied, read-out: IC50): 19 µM; F. Rev ([4]; HL60/R10): 1.6 |
| COc1cccc2c1C(=O)c1c(O)c3c(c(O)c1C2=O)C[C@@](O)(C(=O)CO)C[C@@H]3O[C@H]1C[C@H](NC(=O)CCC(=O)N[C@@H](CCCNC(=N)N)C(=O)NCC(=O)NCC(=O)N[C@@H](CCCNC(=N)N)C(=O)N[C@@H](CC(C)C)C(=O)N[C@@H](C)C(=O)N[C@@H](Cc2ccc(O)cc2)C(=O)N[C@@H](CC(C)C)C(=O)N[C@@H](CCCNC(=N)N)C(=O)N[C@@H](CCCNC(=N)N)C(=O)N[C@@H](CCCNC(=N)N)C(=O)N[C@@H](Cc2c[nH]c3ccccc23)C(=O)N[C@@H](C)C(=O)N[C@H](C(=O)N[C@@H](CC(C)C)C(=O)N[C@H](C(=O)NCC(=O)N[C@@H](CCCNC(=N)N)C(=O)O)C(C)C)C(C)C)[C@H](O)[C@H](C)O1 [Compound 7, doxo-CO-(CH2)2-CO-RGGRLAYLRRRWAVLVGR] ({Doxorubicin(3'-N)-Suc}-RGGRLAYLRRRWAVLVGR-OH; N-terminus and C-terminus assumed) | >26 | 0.85 | – |
